The target of this test is T1, USP30 (Homo sapiens, UniProt Q70CQ3).
T1 construct: We next determined cellular engagement of endogenous USP30 with IMP-2587 or IMP-2586; endogenous in cells; host or cells: HEK293T
T1 sequence (Q70CQ3 1-517): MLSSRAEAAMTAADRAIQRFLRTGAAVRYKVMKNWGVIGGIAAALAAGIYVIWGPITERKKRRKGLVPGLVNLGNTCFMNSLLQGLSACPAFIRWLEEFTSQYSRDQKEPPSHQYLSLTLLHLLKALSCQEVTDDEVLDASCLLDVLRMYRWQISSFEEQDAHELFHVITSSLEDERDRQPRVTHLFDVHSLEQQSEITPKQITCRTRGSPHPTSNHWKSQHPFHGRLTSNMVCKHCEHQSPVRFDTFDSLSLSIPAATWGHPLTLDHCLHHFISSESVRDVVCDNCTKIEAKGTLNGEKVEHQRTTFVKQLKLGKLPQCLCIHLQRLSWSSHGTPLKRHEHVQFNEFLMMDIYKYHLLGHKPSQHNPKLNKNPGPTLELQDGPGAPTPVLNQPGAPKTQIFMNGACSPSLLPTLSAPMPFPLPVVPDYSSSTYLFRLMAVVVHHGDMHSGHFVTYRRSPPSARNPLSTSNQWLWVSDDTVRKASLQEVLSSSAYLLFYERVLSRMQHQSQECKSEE
Description: Biotin pulldown (Neutravidin enrichment) and immunoblotting for USP30. It is filed as cell-based. As to conditions: HEK293T, 1 h; for extent of USP30 engagement and enrichment: 100 nM probe, pulldown; for probe concentration at which USP30 was enriched (pulldown) / probe concentration of maximal USP30 enrichment (pulldown): biotin pulldown and immunoblotting. As for the experimental part: We next determined cellular engagement of endogenous USP30 with IMP-2587 or IMP-2586. […] In-cell concentration-dependent competition by IMP-2587 and IMP-2586 for USP30 were confirmed below 100 nM probe (Fig. 2b and c), whilst engagement of an exemplar unrelated DUB, UCHL1, occurred only at a much higher concentration (30 000 nM). We hypothesise that incomplete modification of USP30 by HA-Ub-VME is likely due to limited retention of USP30 activity in cell lysates, which have likely had the USP30 transmembrane domain compromised, highlighting the potential utility of a small molecule USP30 ABP applicable directly in intact cells. Direct USP30 target engagement by IMP-2587 and IMP-2586 was confirmed in HEK293T cells following 1 h probe treatment followed by cell lysis and CuAAC bio-orthogonal ligation to capture reagent azido-TAMRA-biotin (AzTB) for IMP-2587 or alkyne-TAMRA-biotin for IMP-2586 (Fig. 3a).[27] […] This unspecific background labelling is presumably due to the previously reported higher off-target CuAAC reactivity of an alkyne-bearing capture reagent, applied here due to incorporation of an azide tag in IMP-2586.[28] Moreover, the labelling of USP30 was further confirmed by biotin pulldown and immunoblotting. […]
d) Live cell probe incubation, lysate click chemistry and precipitation 6-well HEK293T cells were incubated with media containing compounds ABP 2 and ABP 4 at indicated concentrations for 1 h at 37 °C. The cells were washed with PBS and lysed with lysis buffer (50 μL (1% (v/v) Triton X-100, 0.1% (w/v) sodium dodecyl sulfate (SDS), EDTA-free complete protease inhibitor cocktail (1×, Roche) in PBS on ice for 10 min. The lysates were scraped and transferred to corresponding Lo-Bind Eppendorfs. Each lysate was sonicated for 1 minute, and the samples centrifuges at 5,000 x g at 4 °C for 5 minutes to pellet insoluble cellular debris. The supernatant was collected, and protein concentration was determined using the DC Protein Assay (Bio-Rad) as per manufacturer’s instructions, and normalised to lowest concentrated sample (e.g. 1 mg/mL, using lysis buffer). The following “click mixture” was prepared separately, preparing 6 μL for every 100 μL of […]
Capture reagent (AzRB/AzT for ABP 2, YnT/YnB for ABP 4 10 mM in DMSO, 1 vol; final concentration […]
CuSO4 (50 mM in water, 2 vol; final concentration in reaction 1 mM)
TCEP (50 mM in water, 2 vol; final concentration in reaction 1 mM)
TBTA (10 mM in DMSO, 1 vol; final concentration in reaction 100 µM)
The click mixture was vortexed and incubated at room temperature for 2 min before 6 μL of the mixture was added to every 100 μL of lysate. The reaction mixtures were shaken at room temperature for 1 h before being quenched with EDTA (500 mM in H2O) to a final concentration of 10 mM.
Proteins were precipitated by adding H2O (1 vol), MeOH (2 vol) and CHCl3 (0.5 vol), vortexing briefly then centrifuging at 17,000 × g for 5 min. The top H2O/MeOH layer was discarded and the middle layer of protein pellet and lower CHCl3 layer retained. The suspension was washed with MeOH (300 μL), and sonicated to break up the pellet. The proteins were pelleted by centrifugation at 10,000–17000 × g for 5–10 min or until a compact pellet was formed. The protein pellet was washed once more with MeOH (1 mL). The pellet was resuspended by sonicating and completely dissolving in 1% (w/v) SDS in PBS (to 5 mg/mL protein) before being made up to 1 mg/mL protein with PBS.
The lysate samples (10-20 μg) were mixed with 4× Laemmli sample loading buffer (250 mM Tris -HCl pH 6.8, 30% (v/v) glycerol, 10% (w/v) SDS, 0.05% (w/v) bromophenol blue) supplemented with 20% v/v β-mercaptoethanol (BME) and boiled for 10 min at 95 °C. The resulting protein samples were separated according to the protocol in section 3.2.c. Gel were imaged on a Typhoon imager (GE Healthcare; λEx 532 nm, λEm 575 nm for TAMRA. For protein loading quantification, gels were stained with Coomassie blue staining solution overnight, rinsed with water and imaged on an ImageQuant™ […]
Background: Immunoblotting shows a protein as a band on a membrane.

On to `N#CN1CC[C@@H](NC(=O)c2cc(-c3ccccc3Oc3ccc(N=[N+]=[N-])cc3)n[nH]2)C1` [IMP-2586], for which the “extent of USP30 engagement and enrichment” value was “almost complete engagement and enrichment”; the “probe concentration at which USP30 was enriched (pulldown)” value turned out to be 10 nM; the “probe concentration of maximal USP30 enrichment (pulldown)” value was 100 nM.

As to `C#Cc1cccc(-c2cc(NC(=O)CC3CCN(C#N)C3)on2)c1` (stereo not drawn) [IMP-2587], the “extent of USP30 engagement and enrichment” value was “almost complete engagement and enrichment”; the “probe concentration at which USP30 was enriched (pulldown)” value was 10 nM; the “probe concentration of maximal USP30 enrichment (pulldown)” value turned out to be 100 nM.

The values are drawn from paper PMC11078216, “Discovery of potent and selective activity-based probes (ABPs) for the deubiquitinating enzyme USP30” (RSC Chemical Biology, 2024).
